The values below come from patent US7049313B2, “ATM inhibitors” (Kudos Pharmaceuticals Ltd., priority 2002, dated 2006).

Where a name gives a salt, the structure may show the parent alone.

T1 sequence (Q13315 whole entry): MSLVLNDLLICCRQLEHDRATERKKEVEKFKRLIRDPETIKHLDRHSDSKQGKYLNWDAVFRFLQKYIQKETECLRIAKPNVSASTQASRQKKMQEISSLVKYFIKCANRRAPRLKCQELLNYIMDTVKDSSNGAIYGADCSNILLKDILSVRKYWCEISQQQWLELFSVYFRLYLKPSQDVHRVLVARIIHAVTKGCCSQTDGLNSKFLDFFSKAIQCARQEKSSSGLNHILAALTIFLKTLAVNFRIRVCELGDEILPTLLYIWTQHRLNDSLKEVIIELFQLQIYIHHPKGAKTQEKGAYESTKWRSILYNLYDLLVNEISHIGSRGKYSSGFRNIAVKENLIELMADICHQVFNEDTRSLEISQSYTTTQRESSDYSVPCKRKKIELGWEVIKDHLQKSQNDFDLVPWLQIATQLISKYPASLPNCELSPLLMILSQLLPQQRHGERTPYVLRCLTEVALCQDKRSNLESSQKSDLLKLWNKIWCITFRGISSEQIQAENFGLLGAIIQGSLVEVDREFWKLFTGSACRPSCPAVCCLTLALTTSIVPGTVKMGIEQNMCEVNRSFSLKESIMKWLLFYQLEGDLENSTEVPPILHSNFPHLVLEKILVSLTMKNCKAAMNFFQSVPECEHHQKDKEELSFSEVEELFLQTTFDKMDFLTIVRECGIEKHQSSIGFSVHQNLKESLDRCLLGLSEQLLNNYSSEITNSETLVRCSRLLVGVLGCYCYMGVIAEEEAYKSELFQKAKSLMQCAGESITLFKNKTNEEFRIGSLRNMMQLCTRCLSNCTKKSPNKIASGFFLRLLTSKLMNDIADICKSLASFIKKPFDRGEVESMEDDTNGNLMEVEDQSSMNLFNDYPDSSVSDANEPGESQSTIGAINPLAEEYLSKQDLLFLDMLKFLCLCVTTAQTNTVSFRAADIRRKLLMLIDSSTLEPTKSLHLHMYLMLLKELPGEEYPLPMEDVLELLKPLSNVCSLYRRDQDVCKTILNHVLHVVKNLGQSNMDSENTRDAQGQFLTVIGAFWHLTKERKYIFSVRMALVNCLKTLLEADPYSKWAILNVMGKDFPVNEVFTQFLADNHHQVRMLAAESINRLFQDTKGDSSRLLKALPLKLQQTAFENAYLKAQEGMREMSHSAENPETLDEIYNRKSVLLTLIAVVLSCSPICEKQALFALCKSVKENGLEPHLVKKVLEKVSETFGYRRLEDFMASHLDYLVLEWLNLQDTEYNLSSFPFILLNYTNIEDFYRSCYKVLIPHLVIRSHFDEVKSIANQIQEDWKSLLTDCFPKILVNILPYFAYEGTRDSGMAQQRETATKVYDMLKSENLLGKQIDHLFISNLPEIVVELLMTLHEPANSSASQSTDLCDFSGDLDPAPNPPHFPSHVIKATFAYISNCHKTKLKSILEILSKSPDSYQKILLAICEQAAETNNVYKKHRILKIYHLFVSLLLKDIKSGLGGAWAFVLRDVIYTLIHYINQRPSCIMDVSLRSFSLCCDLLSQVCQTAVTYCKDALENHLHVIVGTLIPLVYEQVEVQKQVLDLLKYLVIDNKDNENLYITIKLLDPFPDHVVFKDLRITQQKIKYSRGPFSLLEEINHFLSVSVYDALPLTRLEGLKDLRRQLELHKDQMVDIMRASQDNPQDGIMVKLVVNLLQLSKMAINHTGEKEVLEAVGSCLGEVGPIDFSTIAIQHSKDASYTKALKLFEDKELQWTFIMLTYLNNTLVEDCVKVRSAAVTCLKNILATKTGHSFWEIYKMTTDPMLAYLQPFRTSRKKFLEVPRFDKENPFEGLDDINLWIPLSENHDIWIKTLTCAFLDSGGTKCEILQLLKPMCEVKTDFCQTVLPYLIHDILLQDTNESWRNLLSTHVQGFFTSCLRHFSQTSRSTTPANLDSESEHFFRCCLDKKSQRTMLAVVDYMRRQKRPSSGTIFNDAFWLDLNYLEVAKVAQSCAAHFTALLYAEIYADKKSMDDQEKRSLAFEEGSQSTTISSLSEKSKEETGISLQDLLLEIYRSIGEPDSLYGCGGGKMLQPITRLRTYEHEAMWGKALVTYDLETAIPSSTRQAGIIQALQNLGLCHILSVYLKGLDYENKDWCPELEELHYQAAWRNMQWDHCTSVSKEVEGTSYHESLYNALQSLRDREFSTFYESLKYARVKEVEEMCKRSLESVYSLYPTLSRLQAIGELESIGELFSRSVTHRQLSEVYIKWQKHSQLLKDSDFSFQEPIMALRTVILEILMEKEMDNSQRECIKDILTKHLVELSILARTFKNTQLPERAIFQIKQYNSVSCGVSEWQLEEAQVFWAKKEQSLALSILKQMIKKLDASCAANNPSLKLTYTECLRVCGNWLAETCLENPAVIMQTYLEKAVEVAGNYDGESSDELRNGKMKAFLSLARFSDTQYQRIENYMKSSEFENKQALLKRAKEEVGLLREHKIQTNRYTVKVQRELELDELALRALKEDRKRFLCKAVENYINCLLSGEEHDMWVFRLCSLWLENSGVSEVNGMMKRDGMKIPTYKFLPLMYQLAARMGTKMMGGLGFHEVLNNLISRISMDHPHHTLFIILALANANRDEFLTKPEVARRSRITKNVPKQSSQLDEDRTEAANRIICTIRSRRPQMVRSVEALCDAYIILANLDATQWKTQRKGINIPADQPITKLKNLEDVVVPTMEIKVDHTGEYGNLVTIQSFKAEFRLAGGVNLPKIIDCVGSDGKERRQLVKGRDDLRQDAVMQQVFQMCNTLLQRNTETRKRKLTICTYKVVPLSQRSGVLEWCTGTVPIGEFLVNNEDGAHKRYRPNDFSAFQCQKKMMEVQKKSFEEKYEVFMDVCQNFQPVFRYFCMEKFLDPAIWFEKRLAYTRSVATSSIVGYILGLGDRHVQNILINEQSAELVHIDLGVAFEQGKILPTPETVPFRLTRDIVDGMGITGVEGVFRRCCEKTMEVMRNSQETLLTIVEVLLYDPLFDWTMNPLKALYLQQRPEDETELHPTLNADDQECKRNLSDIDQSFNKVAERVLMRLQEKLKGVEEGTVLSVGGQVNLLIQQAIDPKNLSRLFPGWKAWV

This assay addresses T1, ATM (Homo sapiens, UniProt Q13315).
T1 construct: ATM protein was immunoprecipitated from HeLa cell nuclear extract; endogenous in cells; host or cells: HeLa cell nuclear extract (immunoprecipitate)
Put plainly: In vitro ATM inhibition assay (phosphorylation of GSTp53N66 on serine 15). The format is biochemical. How it is done:
In vitro ATM inhibition Assays
In order to assess the inhibitory action of the compounds against ATM in vitro, the following assay was used to determine IC50 values.
ATM protein was immunoprecipitated from HeLa cell nuclear extract using rabbit polyclonal anti-sera raised to the C-terminal ˜500 amino-acid residues of the human ATM protein. The immunoprecipitation was performed according to the methodology described by Banin, S. et al. (1998). 10 μl of immunoprecipitated ATM in Buffer C (50 mM Hepes, pH 7.4, 6 mM MgCl2, 150 mM NaCl, 0.1 mM sodium orthovanadate, 4 mM MnCl2, 0.1 mM dithiothreitol, 10% glycerol) was added to 32.5 μl of buffer C containing 1 μg of the ATM substrate GSTp53N66 in a V-bottomed 96 well polypropylene plate. The GSTp53N66 substrate is the amino terminal 66 amino acid residues of human wild type p53 fused to glutathione S-transferase. ATM phosphorylates p53 on the residue serine 15 (Banin, S. et al. (1998)). Varying concentrations of inhibitor were then added. […] After 10 minutes of incubation at 37° C., the reactions were initiated by the addition of 5 μl of 500 μM Na-ATP. After 1 hour with shaking at 37° C., 150 μl of phosphate buffered saline (PBS) was added to the reaction and the plate centrifuged at 1500 rpm for 10 minutes. 5 μl of the reaction was then transferred to a 96 well opaque white plate containing 45 μl of PBS to allow the GSTp53N66 substrate to bind to the plate wells. The plate was covered and incubated at room temperature for 1 hour with shaking before discarding the contents. The plate wells were washed twice by the addition of PBS prior to the addition of 3% (w/v) bovine serum albumin (BSA) in PBS. The plate was incubated at room temperature for 1 hour with shaking before discarding the contents and washing twice with PBS. To the wells, 50 μl of a 1:10,000 dilution of primary phosphoserine-15 antibody (Cell Signaling Technology, #9284L) in 3% BSA/PBS was added to detect the phosphorylation event on the serine 15 residue of p53 elicited by the ATM kinase. After 1 hour of incubation at room temperature with shaking, the wells were washed four times with PBS prior to the addition of an anti-rabbit HRP conjugated secondary antibody (Pierce, 31462) with shaking for 1 hour at room temperature. The wells were then washed four times with PBS before the addition of chemiluminescence reagent (NEN Renaissance, NEL105). The plate was then shaken briefly, covered with a transparent plate seal and transferred to a TopCount NXT for chemiluminescent counting. Counts per second, following a one second counting time, were recorded for each reaction.
The enzyme activity for each compound is then calculated using the following equation: […]
Regarding `COC(=O)C(=O)Nc1ccc2c(c1)Cc1cccc(-c3cc(=O)cc(N4CCOCC4)o3)c1S2` [Compound 34], the half-maximal inhibitory concentration (IC50) (usually the midpoint of a concentration-inhibition curve) is under 200 nM.
On to `CN1CCCC1CCNC(=O)c1ccc2c(c1)Sc1cccc(-c3cc(=O)cc(N4CCOCC4)o3)c1S2` (centres unmarked) [Compound 168], for which the IC50 was under 200 nM.
In turn, `O=C(Nc1ccc2c(c1)Cc1cccc(-c3cc(=O)cc(N4CCOCC4)o3)c1S2)c1cc(F)cc2c1OCOC2` [Compound 44] showed an IC50 of under 200 nM.
As to `S=c1cc(-c2cccc3c2Sc2ccccc2S3)oc(N2CCOCC2)c1` [Compound 18, 2-Thianthren-1-yl-6-morpholin-4-yl-pyran-4-thione], the IC50 was under 200 nM.
In turn, `O=C(NCCCN1CCOCC1)c1ccc2c(c1)Sc1cccc(-c3cc(=O)cc(N4CCOCC4)o3)c1S2` [Compound 178] came in with an IC50 of under 200 nM.
In turn, `O=C(CSc1ncn[nH]1)Nc1ccc2c(c1)Cc1cccc(-c3cc(=O)cc(N4CCOCC4)o3)c1S2` [Compound 64] yielded an IC50 of under 200 nM.
`O=c1cc(-c2ccc(F)c3c2Sc2ccccc2C3)oc(N2CCOCC2)c1` [Compound 17, 2-(1-Fluoro-9H-thioxanthen-4-yl)-6-morpholin-4-yl-pyran-4-one] had an IC50 of under 200 nM.
The value for `Cc1cc(C(=O)Nc2ccc3c(c2)Cc2cccc(-c4cc(=O)cc(N5CCOCC5)o4)c2S3)no1` [Compound 45] was under 200 nM.
`O=c1cc(-c2ccc(OCCSc3ncn[nH]3)c3c2Cc2ccccc2S3)oc(N2CCOCC2)c1` [Compound 102] displayed an IC50 of under 200 nM.
For the compound `Cn1nc(O)cc1C(=O)Nc1ccc2c(c1)Cc1cccc(-c3cc(=O)cc(N4CCOCC4)o3)c1S2` [Compound 35], the 50% inhibitory concentration (IC50) was under 200 nM.
The value for `O=c1cc(-c2ccc(O)c3c2Cc2ccccc2S3)oc(N2CCOCC2)c1` [Compound 87, 2-(4-Hydroxy-9H-thioxanthen-1yl)-6-morpholin-4-yl-pyran-4-one] was under 200 nM; that for `O=C(NCc1ccco1)c1ccc2c(c1)Sc1cccc(-c3cc(=O)cc(N4CCOCC4)o3)c1S2` [Compound 150] was under 200 nM.
`CC(C)(C)OC(=O)N1CCN(CCNC(=O)c2ccc3c(c2)Sc2cccc(-c4cc(=O)cc(N5CCOCC5)o4)c2S3)CC1` [Compound 180] yielded an IC50 of under 200 nM.
Regarding `O=C(Nc1ccc2c(c1)Cc1cccc(-c3cc(=O)cc(N4CCOCC4)o3)c1S2)c1ccncc1` [Compound 28], the 50% inhibitory concentration (IC50) was under 200 nM.
For `O=C(CN1CCCCCC1)Nc1ccc2c(c1)Cc1cccc(-c3cc(=O)cc(N4CCOCC4)o3)c1S2` [Compound 61], the IC50 was under 200 nM.
Consider `O=c1cc(-c2ccccc2Sc2ccccc2)oc(N2CCOCC2)c1` [Compound 9, 2-(2-Phenylsulfanyl-phenyl)-6-morpholin-4-yl-pyran-4-one], for which the IC50 is under 20000 nM.
`O=C(CN1CCCCC1)Nc1ccc2c(c1)Cc1cccc(-c3cc(=O)cc(N4CCOCC4)o3)c1S2` [Compound 51] gave an IC50 of under 200 nM.
Take `O=C(O)C(F)(F)C(F)(F)C(=O)Nc1ccc2c(c1)Cc1cccc(-c3cc(=O)cc(N4CCOCC4)o3)c1S2` [Compound 50]: the IC50 is under 200 nM.
In the case of `CC(=O)OC(C(=O)Nc1ccc2c(c1)Cc1cccc(-c3cc(=O)cc(N4CCOCC4)o3)c1S2)c1ccccc1` (centres unmarked) [Compound 41] it was under 200 nM.
In the case of `COC[C@@H]1CCCN1NC(=O)c1ccc2c(c1)Sc1cccc(-c3cc(=O)cc(N4CCOCC4)o3)c1S2` [Compound 163], the half-inhibitory concentration (IC50) is under 200 nM.
As for `O=C(NCCN1CCCC1)c1ccc2c(c1)Sc1cccc(-c3cc(=O)cc(N4CCOCC4)o3)c1S2` [Compound 167], the concentration for half-maximal inhibition (IC50) is under 200 nM.
As for `O=C(NCc1ccccn1)c1ccc2c(c1)Sc1cccc(-c3cc(=O)cc(N4CCOCC4)o3)c1S2` [Compound 170], the IC50 was under 200 nM.
Turning to `CCCCNC(=O)c1ccc2c(c1)Sc1cccc(-c3cc(=O)cc(N4CCOCC4)o3)c1S2` [Compound 143], the half-inhibitory concentration (IC50) is under 200 nM.
For `CC(=O)Oc1ccccc1C(=O)Nc1ccc(-c2cc(=O)cc(N3CCOCC3)o2)c2c1Cc1ccccc1S2` [Compound 109], the 50% inhibitory concentration (IC50) is under 200 nM.
`NCC(=O)Nc1ccc2c(c1)Cc1cccc(-c3cc(=O)cc(N4CCOCC4)o3)c1S2` [Compound 66] yielded a half-maximal inhibitory concentration (IC50) of under 200 nM.
With `O=C(CCN1CCNCC1)Nc1ccc2c(c1)Cc1cccc(-c3cc(=O)cc(N4CCOCC4)o3)c1S2` [Compound 70], the IC50 was under 200 nM.
`O=C(NC1CCC1)c1ccc2c(c1)Sc1cccc(-c3cc(=O)cc(N4CCOCC4)o3)c1S2` [Compound 153] returned an IC50 of under 200 nM.
The compound `CC(C)NC(=O)c1ccc2c(c1)Sc1cccc(-c3cc(=O)cc(N4CCOCC4)o3)c1S2` [Compound 146] had an IC50 of under 200 nM.
With `O=C(Cc1cccs1)Nc1ccc2c(c1)Cc1cccc(-c3cc(=O)cc(N4CCOCC4)o3)c1S2` [Compound 31], the IC50 is under 200 nM.
The value for `O=C(NCCN1CCN(Cc2ccccc2)CC1)c1ccc2c(c1)Sc1cccc(-c3cc(=O)cc(N4CCOCC4)o3)c1S2` [Compound 179] was under 200 nM.
With `Cc1noc(C)c1C(=O)Nc1ccc2c(c1)Cc1cccc(-c3cc(=O)cc(N4CCOCC4)o3)c1S2` [Compound 33], the half-inhibitory concentration (IC50) was under 200 nM.
The value for `O=C(O)c1ccc2c(c1)Sc1cccc(-c3cc(=O)cc(N4CCOCC4)o3)c1S2` [Compound 138, 6-(6-Morpholin-4-yl-4-oxo-4H-pyran-2-yl)-thianthrene-2-carboxylate sodium salt] was under 200 nM; that for `O=C(Nc1ccc2c(c1)Cc1cccc(-c3cc(=O)cc(N4CCOCC4)o3)c1S2)c1cccs1` [Compound 30] was under 200 nM; that for `CN(CCc1ccccn1)C(=O)c1ccc2c(c1)Sc1cccc(-c3cc(=O)cc(N4CCOCC4)o3)c1S2` [Compound 174] was under 200 nM.
In the case of `CCN(CC)CCCNC(=O)c1ccc2c(c1)Sc1cccc(-c3cc(=O)cc(N4CCOCC4)o3)c1S2` [Compound 182] it was under 200 nM; in that of `O=C(Nc1ccc(-c2cc(=O)cc(N3CCOCC3)o2)c2c1Cc1ccccc1S2)c1cccnc1` [Compound 119], under 200 nM.
For the compound `CSc1ncccc1C(=O)Nc1ccc(-c2cc(=O)cc(N3CCOCC3)o2)c2c1Cc1ccccc1S2` [Compound 122], the concentration for half-maximal inhibition (IC50) is under 200 nM.
In turn, `O=C(Nc1ccc(-c2cc(=O)cc(N3CCOCC3)o2)c2c1Cc1ccccc1S2)c1ccc[nH]1` [Compound 128] displayed a half-maximal inhibitory concentration (IC50) of under 200 nM.
`O=C(CCN1CCCCC1)Nc1ccc2c(c1)Cc1cccc(-c3cc(=O)cc(N4CCOCC4)o3)c1S2` [Compound 69] gave an IC50 of under 200 nM.
Regarding `CN1CCN(CCC(=O)Nc2ccc3c(c2)Cc2cccc(-c4cc(=O)cc(N5CCOCC5)o4)c2S3)CC1` [Compound 71], the IC50 is under 200 nM.
The value for `CC(C)(C)OC(=O)N1c2ccccc2Sc2c(-c3cc(=O)cc(N4CCOCC4)o3)cccc21` [Compound 134, 4-(6-Morpholin-4-yl-4-oxo-4H-pyran-2-yl)-phenothiazine-10-carboxylic acid tert-butyl ester] was under 200 nM.
`O=C(NC1CCCC1)c1ccc2c(c1)Sc1cccc(-c3cc(=O)cc(N4CCOCC4)o3)c1S2` [Compound 155]: the IC50 was under 200 nM.
The compound `O=C(Nc1ccc2c(c1)Cc1cccc(-c3cc(=O)cc(N4CCOCC4)o3)c1S2)c1ccc2c(c1)CCO2` [Compound 43] gave a 50% inhibitory concentration (IC50) of under 200 nM.
`COCC(=O)Nc1ccc2c(c1)Cc1cccc(-c3cc(=O)cc(N4CCOCC4)o3)c1S2` [Compound 22] registered an IC50 of under 200 nM.
As to `O=c1cc(-c2cccc3c2Sc2ccccc2CC3)oc(N2CCOCC2)c1` [Compound 133, 2-(10,11-Dihydro-dibenzo[b,f]thiepin-4-yl)-6-morpholin-4-yl-pyran-4-one], the half-inhibitory concentration (IC50) is under 200 nM.
The value for `COc1cc(C(=O)Nc2ccc3c(c2)Cc2cccc(-c4cc(=O)cc(N5CCOCC5)o4)c2S3)cc(OC)c1OC` [Compound 38] was under 200 nM.
As to `O=C(NN1CCOCC1)c1ccc2c(c1)Sc1cccc(-c3cc(=O)cc(N4CCOCC4)o3)c1S2` [Compound 165], the IC50 is under 200 nM.
Compound `CCNC(=O)c1ccc2c(c1)Sc1cccc(-c3cc(=O)cc(N4CCOCC4)o3)c1S2` [Compound 142] had an IC50 of under 200 nM.
The value for `O=C(c1ccc2c(c1)Sc1cccc(-c3cc(=O)cc(N4CCOCC4)o3)c1S2)N1CCCC1` [Compound 156] was under 200 nM; that for `CN1CCN(NC(=O)c2ccc3c(c2)Sc2cccc(-c4cc(=O)cc(N5CCOCC5)o4)c2S3)CC1` [Compound 164] was under 200 nM.
